Where two headings read alike, the source gives them in different places.
Tests used:
[1] = Peptide stability in complete medium with dispersed islet cells (cAMP bioactivity assay); assay type: in vitro ADME, mouse
Description: AD-293 cells were added to a 12-well plate and maintained in 2 ml complete DMEM. 1 μg of specified plasmid DNA was added to each well alongside Lipofectamine 2000 (Thermo Fisher, UK). cAMP production was quantified 24 hours following transfection using homogenous time resolved fluorescence (HTRF), specifically the cAMP-Gs Dynamic 2 kit (Cisbio, France). Peptides and cells were diluted in DMEM + 1% P/S + 0.1% BSA. For peptide stability testing, cells, fresh peptide and peptide incubated with dispersed islet cells were diluted in RPMI-1640 (Thermo Fisher, UK) + 10% FBS + 1% P/S. 10 μl of peptide and 10 μl of cell suspension were added in duplicate to an opaque 96-well plate (Grenier Bio-One, Austria) and incubated at 37°C for 30 minutes. 10 μl of cAMP-d2 and anti-cAMP cryptate, both diluted in lysis buffer, were added in quick succession as per the manufacturer’s protocol. The plates were then incubated at room temperature for 45 minutes and read using the SpectraMax i3x (Molecular Devices, US).
Three-parameter curve fitting was applied.

[2] = test system: lean and HFD-induced obese mice; assay: In vivo GIPR desensitisation: IPGTT and insulin bleeds; design: species or system mouse
Description: (§1) In all in vivo studies, mice were randomised by body weight into groups. Mice received a 50 μL subcutaneous injection of saline (0.9% sodium chloride) or peptide at a specified dose, diluted in saline. Peptide dosing was in nmol per kg of total body weight. For the assessment of the chronic effects of GIP108, mice were injected daily for 15 days. Body composition was measured by EchoMRI on day −1 and day 15. An intraperitoneal glucose tolerance test (IPGTT) (2 g/kg) was conducted on day 14, following 6 h of fasting and 2 h after peptide injection. Non-fasting plasma leptin (ab199082, Abcam, UK), adiponectin (ab226900, Abcam, UK) and amino acids (ab65347, Abcam, UK) were measured on day 16. For the assessments of in vivo GIPR desensitisation, mice were injected at 17:00 with vehicle or GIP108 (30 nmol/kg) prior to an acute food intake study/IPGTT/insulin bleeds conducted the following day. Full details of the in vivo studies are provided in the supplementary methods.
Mice were fasted at 08:00. For all studies, 20% glucose was administered at 14:00, with the injection volume adjusted to the body weight of the mouse such that each mouse received glucose at 2 g/kg. To assess effects of GIP108 on day 14 of the chronic study, mice were dosed with saline or GIP108 at a specified dose at 12:00. […] Blood glucose measurements were taken via tail vein venesection at baseline, t=15, t=30, t=60, t=90 and t=120 mins. Glucose AUC is calculated using y=0. Glucose readings were measured in mmol/L using the same GlucoRx glucometer.
Mice were fasted at 08:00. At 14:00, mice received an intraperitoneal injection with 20% glucose, with the injection volume adjusted to the body weight of the mouse such that each mouse received glucose at 2 g/kg. […] Blood samples were taken via tail vein venesection at baseline and t=15 minutes following injection.
Leptin, adiponectin and amino acids were quantified following chronic GIP108 administration. Plasma amino acids were measured using the Abcam L-amino acid assay kit (ab65347, Abcam, UK). Plasma adiponectin was measured using the Abcam mouse adiponectin ELISA kit (ab226900, Abcam, UK). Plasma leptin was measured using the Abcam mouse leptin ELISA kit (ab199082, Abcam, UK). All assays were performed according to the manufacturer’s protocol and were read using the SpectraMax i3x Microplate Reader (Molecular Devices, US).

dispersed islet cells = assay: cADDis cAMP concentration-response in dispersed islets; assay type: cell-based, mouse; conditions: three-parameter fit, n=5, read-out: calculated EC50, cAMP in dispersed islets
Description: (§2) Primary cultures of mouse hypothalamic neurons and dispersed pancreatic islets were transduced with the Green Up cADDis biosensor (Montana Molecular, US). Pancreatic islets from CAMPER^Pdx−1-CreERT2 and CAMPER^Som-Cre mice were not transduced. Cells were pre-treated with peptides as specified, dissolved in culture media. Following 4 h or overnight incubation and a 1-hour washout period, cells were imaged using an epifluorescence microscope at baseline (t = 3 min), following peptide addition (t = 10 min, unless specified otherwise), and following 3-isobutyl-1-methylxanthine (IBMX) (500 μM) and forskolin (FSK) (50 μM) addition (t = 3 min) to maximally stimulate the sensor. In pre-treatment experiments, islet cell fluorescence was normalised to the IBMX/FSK response which was set as 100%. In non-pre-treatment experiments, islet and neuronal cell fluorescence was normalised to both the baseline and IBMX/FSK response. The area-under-the-curve (AUC) for each cell was quantified. Full details of isolation, transduction, plating, imaging and image analysis is provided in the supplementary methods.
Dispersed islets: A cell suspension of dispersed islets in RPMI-1640 + 10% FBS + 1% P/S (islet complete media) was seeded onto square 96 well µ-plates (Ibidi, UK), coated with 0.01% poly-D-lysine hydrobromide (Sigma-Aldrich, UK) and 25 µg/ml mouse laminin (Thermo Fisher, UK). For cADDis experiments, cells were transduced with the Green Up cADDis biosensor (15 μL of cADDis, 1.5 μL of sodium butyrate per well: Montana Molecular, US). Cells were incubated overnight (37°C, 95%:5% O2:CO2 ratio).
Cells were imaged in Krebs buffer with 6 mM glucose and 0.1% BSA (unless 10% FBS was specified) at 37°C using an automated epifluorescence microscope (modified Nikon Ti-2E with LED illumination). Multiple fields of view (FOV) were imaged in parallel (for islets, multiple wells of a 96 well plate were imaged in parallel), allowing hundreds to thousands of cells to be imaged every minute throughout the time course. For all acquisitions, the first three minutes were baseline recording pre-peptide addition and the last three minutes were a positive control following IBMX (500 μM) and forskolin (50 μM) addition to maximally stimulate the sensor.
cAMP quantification from the raw islet/neuronal images was performed using Fiji v1.54f (NIH). For each acquisition, a flat-field (BaSiC [3*]) correction was applied, and intensity thresholding enabled cell-containing regions to be identified as regions-of-interest (ROIs). The fluorescence intensity of each ROI was measured at each time point. In pre-treatment experiments, islet cell fluorescence was normalised to the maximal IBMX/FSK response which was set as 100%. For non-pre-treatment experiments, neuronal and islet cell fluorescence were normalised to both the baseline and maximal IBMX/FSK response. The AUC during peptide stimulation for each cell was quantified. Neurons with an AUC greater than 75 (representing a response 15 % of the maximum IBMX/FSK response) were deemed responder neurons.
We aimed to determine appropriate pre-treatment doses of GIPR agonists which would produce detectable cAMP responses, indicating target engagement, and were compatible with an extended incubation in complete medium, which could influence ligand availability via binding to serum proteins. We first performed concentration-response analysis in dispersed islets transduced with cADDis in the presence of 10% FBS (Figure S2A, B, D, E).
To determine a sensible re-challenge dose of GIPR agonists, a further concentration-response analysis was conducted in cADDis-transduced dispersed islets in imaging buffer (Krebs buffer + 6 mM glucose + 0.1% BSA, i.e. without FBS) (Figure S2C, F). […] Therefore, 1 μM of GIP108 and 100 nM of GIP were chosen as peri-maximal re-stimulation doses for the remaining islet cAMP assays.
GLP-1R agonist pre-treatment dose selection was performed concurrently with GIPR agonist dose selection.

HFD-induced obese mice = assay: Acute fast-refeed food intake study; assay type: in vivo, mouse; conditions: 200 nmol/kg; vehicle and GIP108 (30 nmol/kg) pre-treated HFD-induced obese mice; n = 37–40
Description: as §1
Food intake was measured at t=30, t=60, t=120 and t=240 mins.

[3] = test system: murine hypothalamic neurons; assay: cADDis cAMP imaging in primary hypothalamic neurons; assay type: cell-based, mouse; conditions: 100 nM and 1 μM, 5-minute stimulation, n=4
Description: as §2
Primary cultures of hypothalamic neurons were prepared from 6-week-old male and female mice as described previously [2*]. A minor difference was that the neuronal pellet was resuspended in Neurobasal-A medium containing 0.25% Glutamax, 2% B27 and 25 ng/ml NGF (all Thermo Fisher, UK) (neuronal culture media).
Hypothalamic neurons: 100 μL cell suspension of neurons in neuronal culture media was seeded on 35 mm petri dish (MatTek Corporation), pre-coated with 0.01% poly-D-lysine hydrobromide. […]
cAMP quantification from the raw islet/neuronal images was performed using Fiji v1.54f (NIH). […] The fluorescence intensity of each ROI was measured at each time point. In pre-treatment experiments, islet cell fluorescence was normalised to the maximal IBMX/FSK response which was set as 100%. For non-pre-treatment experiments, neuronal and islet cell fluorescence were normalised to both the baseline and maximal IBMX/FSK response. The AUC during peptide stimulation for each cell was quantified. […]

[4] = 1 μM in complete medium with dispersed islet cells, cAMP bioactivity in mouse GIPR AD-293 cells

Compound | concentration remaining from 0.5 nM after 24 hours [1] | concentration remaining from 5 nM after 24 hours [1] | glucose tolerance during IPGTT ([2]; hGIP 50 nmol/kg with i.p. glucose, lean and HFD-induced obese mice given s.c. vehicle 21 h prior, n = 14–16) | glucose tolerance during IPGTT ([2]; hGIP 500 nmol/kg, lean and obese mice pre-treated with GIP108 (30 nmol/kg), n=6-8) | EC50 (dispersed islet cells; imaging buffer (Krebs buffer + 6 mM glucose + 0.1% BSA, without FBS)) | EC50 (dispersed islet cells; in the presence of 10% FBS, stepwise addition) | stability at 4 hours [1, 4] | stability at 24 hours [1, 4] | food intake, acute fast-refeed study (HFD-induced obese mice) | cAMP response of hypothalamic neurons [3]
CCCCCCCCCCCCCCCC(=O)N[C@@H](CCC(=O)NCCCC[C@H](NC(=O)[C@H](C)NC(=O)[C@H](C)NC(=O)[C@H](CCC(N)=O)NC(=O)CNC(=O)[C@H](CCC(=O)O)NC(=O)[C@H](CC(C)C)NC(=O)[C@H](Cc1ccc(O)cc1)NC(=O)[C@H](CO)NC(=O)[C@H](CO)NC(=O)[C@@H](NC(=O)[C@H](CC(=O)O)NC(=O)[C@H](CO)NC(=O)[C@@H](NC(=O)[C@H](Cc1ccccc1)NC(=O)[C@@H](NC(=O)CNC(=O)[C@H](CCC(=O)O)NC(=O)[C@H](C)NC(=O)[C@@H](N)Cc1cnc[nH]1)[C@@H](C)O)[C@@H](C)O)C(C)C)C(=O)N[C@@H](CCC(=O)O)C(=O)N[C@@H](Cc1ccccc1)C(=O)N[C@H](C(=O)N[C@@H](C)C(=O)N[C@@H](Cc1c[nH]c2ccccc12)C(=O)N[C@@H](CC(C)C)C(=O)N[C@H](C(=O)N[C@@H](CCCNC(=N)N)C(=O)NCC(=O)N[C@@H](CCCNC(=N)N)C(=O)NCC(=O)O)C(C)C)[C@@H](C)CC)C(=O)O [liraglutide] | 0.12 nM | 0.97 nM |  |  |  |  |  |  |  | 
human GIP(1–42) [hGIP] |  |  | significantly improved glucose tolerance | still able to improve glucose tolerance | 6.37 nM | 69.4 nM | remained stable at 4 hours | not 24 hours | modest reductions in food intake | failed to show detectable responses
